# Results taken from patent US20250145715A1, “B7-H3 TARGETING FUSION PROTEINS AND METHODS OF USE THEREOF” (GT Biopharma, Inc., priority 2021, published 2025).
# System: OVCAR8 cells
# Experiment: IncuCyte real-time tumor-killing assay, OVCAR8
# Assay type: cell-based, human
# Details: enriched NK cells, E:T 2:1, 30 nM, 48 h; vs controls
# Protocol: Healthy donor or ovarian cancer PBMC cells were incubated with ovarian tumor targets at 2:1 E:T ratio for 4 hrs with 30 nM TriKE or control condition. FIG. 30A is a graph illustrating pooled proportion of NK cells from healthy donors expressing CD107a+ (degranulation) against OVCAR8 targets (N=8). FIG. 30B is a graph illustrating pooled proportion of NK cells from healthy donors expressing IFNγ cytokine production against OVCAR8 targets (N=8). FIG. 30C is a graph illustrating pooled proportion of NK cells from healthy donors expressing CD107a+ (degranulation) against OVCAR3 targets (N=4). […] FIG. 30I is a graph illustrating that tumor killing was evaluated using IncuCyte imaging assay. […] The percentage of Live (Nuclight Red+Caspase 3/7−) tumor cells was quantified over a 48-h period and normalized to tumor alone. Readings were obtained every 15 min (representative of four separate experiments). * p<0.05, ** p<0.01, *** p<0.001, and **** p<0.0001.
# Tumor killing was evaluated in real-time using the IncuCyte platform. […] Caspase-3/7 green dye (Sartorious, Ann Arbor, MI, USA) was added to pick up dying cells that have not yet lost NuclightRed fluorescence. […] Images from three technical replicates were taken every 15 min for 48 h using a 4× objective lens and then analyzed using IncuCyte™ Basic Software v2018A (Sartorious). […]
substance,measurement,value
"cam1615B7-H3: second-generation TriKE: humanized camelid anti-CD16 VHH, human wild-type IL-15, anti-B7-H3 mAb 376.96 scFv; SEQ ID NO:1",killing of OVCAR8 tumor cells over two days,robust and rapid tumor killing
